# Tests used:
# [1] = tested on: H1975; test: CCK-8 proliferation, NCI-H1975 (H1975); assay type: cell-based, Human; details: Homo sapiens, NCI-H1975; CCK-8; 96 hours; read-out: Inhibitory activity (IC50) on tumor cell proliferation, H1975
# Outline: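 Cells seeded, then after 24 h treated with 10 concentrations (top 10 µM, 5-fold serial dilution) for a line-specific time at 37°C, 5% CO2. Viability read by CCK-8; IC50 fitted from growth-inhibition curves.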
# [2] = tested on: EGFR; test: Western blot degradation of EGFR (H1975 Cell); assay type: cell-based, Human; details: Table D2
# Outline: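 Quantification by ImageJ densitometry of Western blot bands: DC50 is the fitted concentration halving band intensity relative to DMSO. Percent remaining uses internal-control normalization, and degradation rate is its complement.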
SMILES,IC50 [1] [µM],Degradation of substrate protein EGFR (substrate protein remaining %) [2]
"O=C1CCN(c2ccc(CN3CCN(c4ccc(-c5cc(F)c6c(c5)C(=O)N(C(C(=O)Nc5nccs5)c5ncn7c5CCC7)C6)cc4)CC3)cc2)C(=O)N1 (stereo not shown) [GT-06164, 2-(6,7-dihydro-5H-pyrrolo[1,2-c]imidazol-1-yl)-2-(6-(4-(4-(4-(2,4-dioxotetrahydropyrimidin-1(2H)-yl)benzyl)piperazin-1-yl)phenyl)-4-fluoro-1-oxoisoindolin-2-yl)-N-(thiazol-2-yl)acetamide]",0.001 to 0.01,A (A is defined as 0% ≤ substrate protein remaining % ≤ 80%)
"O=C1CCN(c2ccc(CN3C[C@@H]4C[C@H]3CN4c3ccc(-c4cc(F)c5c(c4)C(=O)N(C(C(=O)Nc4nccs4)c4ncn6c4CCC6)C5)cc3)cc2)C(=O)N1 (stereo partly drawn) [GT-05116, 2-(6,7-dihydro-5H-pyrrolo[1,2-c]imidazol-1-yl)-2-(6-(4-((1S,4S)-5-(4-(2,4-dioxotetrahydropyrimidin-1(2H)-yl)benzyl)-2,5-diazabicyclo[2.2.1]heptan-2-yl)phenyl)-4-fluoro-1-oxoisoindolin-2-yl)-N-(thiazol-2-yl)acetamide]",0.01 to 0.05,A (A is defined as 0% ≤ substrate protein remaining % ≤ 80%)
"O=C1CCC(c2ccc(CN3C[C@H]4C[C@@H]3CN4c3ccc(-c4cc(F)c5c(c4)C(=O)N(C(C(=O)Nc4nccs4)c4ncn6c4CCC6)C5)cc3)nc2)C(=O)N1 (stereo partly drawn) [GT-07389, 2-(6,7-dihydro-5H-pyrrolo[1,2-c]imidazol-1-yl)-2-(6-(4-((1R,4R)-5-((5-(2,6-dioxopiperidin-3-yl)pyridin-2-yl)methyl)-2,5-diazabicyclo[2.2.1]heptan-2-yl)phenyl)-4-fluoro-1-oxoisoindolin-2-yl)-N-(thiazol-2-yl)acetamide]",0.001 to 0.01,A (A is defined as 0% ≤ substrate protein remaining % ≤ 80%)
"O=C1CCC(Nc2cccc(CN3CCC(N4CCN(c5ccc(-c6cc(F)c7c(c6)C(=O)N(C(C(=O)Nc6nccs6)c6ncn8c6CCC8)C7)cc5)CC4)CC3)c2)C(=O)N1 (stereo not shown) [GT-06331, 2-(6,7-dihydro-5H-pyrrolo[1,2-c]imidazol-1-yl)-2-(6-(4-(4-(1-(3-((2,6-dioxopiperidin-3-yl)amino)benzyl)piperidin-4-yl)piperazin-1-yl)phenyl)-4-fluoro-1-oxoisoindolin-2-yl)-N-(thiazol-2-yl)acetamide]",0.01 to 0.05,A (A is defined as 0% ≤ substrate protein remaining % ≤ 80%)
"O=C1CCC(c2ccc(CN3CCC(N4CCN(c5ccc(-c6cc(F)c7c(c6)C(=O)N(C(C(=O)Nc6nccs6)c6ncn8c6CCC8)C7)cc5)CC4)CC3)cc2)C(=O)N1 (stereo not shown) [GT-06326, 2-(6,7-dihydro-5H-pyrrolo[1,2-c]imidazol-1-yl)-2-(6-(4-(4-(1-(4-(2,6-dioxopiperidin-3-yl)benzyl)piperidin-4-yl)piperazin-1-yl)phenyl)-4-fluoro-1-oxoisoindolin-2-yl)-N-(thiazol-2-yl)acetamide]",0.01 to 0.05,A (A is defined as 0% ≤ substrate protein remaining % ≤ 80%)
"O=C1CCN(c2ccc(CN3CCN(C4CCN(c5ccc(-c6cc(F)c7c(c6)C(=O)N(C(C(=O)Nc6nccs6)c6ncn8c6CCC8)C7)cc5)CC4)CC3)cc2)C(=O)N1 (stereo not shown) [GT-06244, 2-(6,7-dihydro-5H-pyrrolo[1,2-c]imidazol-1-yl)-2-(6-(4-(4-(4-(4-(2,4-dioxotetrahydropyrimidin-1(2H)-yl)benzyl)piperazin-1-yl)piperidin-1-yl)phenyl)-4-fluoro-1-oxoisoindolin-2-yl)-N-(thiazol-2-yl)acetamide]",0.001 to 0.01,A (A is defined as 0% ≤ substrate protein remaining % ≤ 80%)
"CN(Cc1ccnc(N2CCC(=O)NC2=O)c1)C1CCN(c2ccc(-c3cc(F)c4c(c3)C(=O)N(C(C(=O)Nc3nccs3)c3ncn5c3CCC5)C4)cc2)CC1 (stereo not shown) [GT-07383, 2-(6,7-dihydro-5H-pyrrolo[1,2-c]imidazol-1-yl)-2-(6-(4-(4-(((2-(2,4-dioxotetrahydropyrimidin-1(2H)-yl)pyridin-4-yl)methyl)(methyl)amino)piperidin-1-yl)phenyl)-4-fluoro-1-oxoisoindolin-2-yl)-N-(thiazol-2-yl)acetamide]",0.001 to 0.01,A (A is defined as 0% ≤ substrate protein remaining % ≤ 80%)
"O=C1CCN(c2cccc(CN3C[C@H]4C[C@@H]3CN4c3ccc(-c4cc(F)c5c(c4)C(=O)N(C(C(=O)Nc4nccs4)c4ncn6c4CCC6)C5)cc3)c2)C(=O)N1 (stereo partly drawn) [GT-06178, 2-(6,7-dihydro-5H-pyrrolo[1,2-c]imidazol-1-yl)-2-(6-(4-((1R,4R)-5-(3-(2,4-dioxotetrahydropyrimidin-1(2H)-yl)benzyl)-2,5-diazabicyclo[2.2.1]heptan-2-yl)phenyl)-4-fluoro-1-oxoisoindolin-2-yl)-N-(thiazol-2-yl)acetamide]",0.001 to 0.01,A (A is defined as 0% ≤ substrate protein remaining % ≤ 80%)
"O=C1CCC(c2cncc(CN3C[C@H]4C[C@@H]3CN4c3ccc(-c4cc(F)c5c(c4)C(=O)N(C(C(=O)Nc4nccs4)c4ncn6c4CCC6)C5)cc3)c2)C(=O)N1 (stereo partly drawn) [GT-07391, 2-(6,7-dihydro-5H-pyrrolo[1,2-c]imidazol-1-yl)-2-(6-(4-((1R,4R)-5-((5-(2,6-dioxopiperidin-3-yl)pyridin-3-yl)methyl)-2,5-diazabicyclo[2.2.1]heptan-2-yl)phenyl)-4-fluoro-1-oxoisoindolin-2-yl)-N-(thiazol-2-yl)acetamide]",0.001 to 0.01,A (A is defined as 0% ≤ substrate protein remaining % ≤ 80%)
"O=C1CCN(c2ccc(CN3C[C@H]4C[C@@H]3CN4c3ccc(-c4cc(F)c5c(c4)C(=O)N(C(C(=O)Nc4nccs4)c4ncn6c4CCC6)C5)cc3)cc2)C(=O)N1 (stereo partly drawn) [GT-06177, 2-(6,7-dihydro-5H-pyrrolo[1,2-c]imidazol-1-yl)-2-(6-(4-((1R,4R)-5-(4-(2,4-dioxotetrahydropyrimidin-1(2H)-yl)benzyl)-2,5-diazabicyclo[2.2.1]heptan-2-yl)phenyl)-4-fluoro-1-oxoisoindolin-2-yl)-N-(thiazol-2-yl)acetamide]",0.001 to 0.01,A (A is defined as 0% ≤ substrate protein remaining % ≤ 80%)
"O=C1CCN(c2ccc(CN3CCN(C4CCN(c5ccc(-c6cc(F)c7c(c6)C(=O)N(C(C(=O)Nc6nccs6)c6ncn8c6CCC8)C7)cc5)CC4(F)F)CC3)cc2)C(=O)N1 (stereo not shown) [GT-06318, 2-(6,7-dihydro-5H-pyrrolo[1,2-c]imidazol-1-yl)-2-(6-(4-(4-(4-(4-(2,4-dioxotetrahydropyrimidin-1(2H)-yl)benzyl)piperazin-1-yl)-3,3-difluoropiperidin-1-yl)phenyl)-4-fluoro-1-oxoisoindolin-2-yl)-N-(thiazol-2-yl)acetamide]",0.01 to 0.05,A (A is defined as 0% ≤ substrate protein remaining % ≤ 80%)
